Laboratory results as given in publication PMC8776730 (Nature Communications, 2022).

System: MIA PaCa-2 cells
Assay: Cellular imaging (CLSM) of FITC-labelled molecules
Assay type: cell-based
Conditions: FITC-labelled molecules, MIA PaCa-2 cells, 1 h incubation, CLSM
Experimental: To further confirm this hypothesis, the M1 and M2 were equally labeled by FITC for cell imaging (Fig. 5b). To simulate the dynamic physiological condition, the cell culture medium was replaced every 15 min. After 1 h of incubation with M1 and M2 at the same molecule molar concentration, there occurred significant differences between the two molecules (Fig. 5c). […] The huge difference can be explained by the fact that the secondary assembly rate broke the balance between the targeted ligand and receptor, and thus tended to a stable assembly interaction. The retention efficiency depended on the assembly rate constant Ka. Meanwhile, the rapid dynamic assembly of BIVA probe in situ around the cell membrane, and contributed to the efficient formation and retention of nanofibers on the cell profile. When the incubation time was delayed up to 2 h, some components could be endocytosed into the cells, but most of them were found on the membranes (Supplementary Fig. 18). […] Then, the isolated cells were collected and lysed, the extracted cell membrane fragments were stained with ThT. […] In order to verify the influence of the addition of the targeting module of the probe molecules, we explored the imaging of R-M1 and M4 on cells.
Fig. 5 The BIVA effect with enhanced targeting to pancreatic tumor cell for boundaries imaging. a Illustration of BIVA effect: active targeting and assembly/aggregate induced retention (AIR) effect. b Chemical structure of FITC labeling. c 2D and 3D confocal images of M2 with active targeting property and M1 with BIVA effect on MIA PaCa-2 cells after incubation for 1 h. d The distribution of M1 on MIA PaCa-2 cell. e ThT staining of the lysed cell membrane of MIA PaCa-2. f, Illustration of migration inhibition after treated by BIVA probe. g The image of the migrated cells after treatment of PBS (blank), M2, M4, and M1. Scale bar: 100 μm. h The pie diagram of quantitative statistical calculation of the migrated cells (blue) in different groups. The blank control was set as 100% migrated cells.
MIA PaCa-2 cells were digested with trypsin, counted with cell counting plate, diluted to 1 × 10^4 with DMEM medium, and 1 mL to 1 cm diameter confocal microscope dish was taken. The cells were incubated in […] atmosphere for 24 h. The medium containing M1 and M2 (50 μM) was replaced and incubated with the cells for 2 h. The cells were washed with PBS for 3 times. CLSM (Zeiss 710) was used to image cells under 40 × objective, excitation = 488 nm, and emission >520 nm.
Supplementary Fig. 19 ∣ CLSM images of Miapaca-2 cells treated with different molecules or M1 under different conditions. […]

Q: How did the “fluorescence signal on the cell membrane” value turn out when mPEG-GPAKLVFFGC(IR783)GRGD [M1] was run?
A: higher fluorescence retention rate on the cell membrane
